The first experiment concerns the target human SCN9A (Nav 1.7) (Homo sapiens, UniProt Q15858). Nature of the experiment: Measurement of Na ion current (Nav 1.7) by automated patch clamp assay in cells stably-expressing human SCN9A. Type of experiment: cell-based. The conditions noted are these: compound concentration 10 μmol/L; holding potential inactivating 50% Nav 1.7 channel (around −60 mV); read-out: Inhibitory rate (%) of Na ion current. As to the method:
Measurement of Na Ion Current in Voltage-Dependent Na Channel Gene Expressed Cell Nav 1.7 current was measured by automated patch clamp assay using cells stably-expressing human SCN9A. Cells Stably-expressing Human SCN9A Tetracycline-induced cells stably-expressing SCN9A were obtained from ChanTest Corporation. […] Next day, the Na ion current was measured by automated patch clamp assay. Electrophysiologic Measurement of Na Ion Current The Na ion current was measured by automated patch clamp assay using the following extracellular solution and intracellular solution. […] The control of the stimulating pulse and the data acquisition were carried out using EPC10 amplifier and Patch Master Software (HEKA). Data were sampled at 10 kHz, and low-pass filtered at 3 kHz. All the measurements were carried out at room temperature. […] The inhibitory rate of the Na ion current by the test compounds was calculated according to the following calculating formula with the peak current value generated by the depolarizing pulse. […] The inhibitory rate of Na ion current by each Example Compound was evaluated.
On the technique in general: The patch-clamp technique gives a direct electrical read-out from membranes.
human SCN9A (Nav 1.7), sequence (Q15858 whole entry): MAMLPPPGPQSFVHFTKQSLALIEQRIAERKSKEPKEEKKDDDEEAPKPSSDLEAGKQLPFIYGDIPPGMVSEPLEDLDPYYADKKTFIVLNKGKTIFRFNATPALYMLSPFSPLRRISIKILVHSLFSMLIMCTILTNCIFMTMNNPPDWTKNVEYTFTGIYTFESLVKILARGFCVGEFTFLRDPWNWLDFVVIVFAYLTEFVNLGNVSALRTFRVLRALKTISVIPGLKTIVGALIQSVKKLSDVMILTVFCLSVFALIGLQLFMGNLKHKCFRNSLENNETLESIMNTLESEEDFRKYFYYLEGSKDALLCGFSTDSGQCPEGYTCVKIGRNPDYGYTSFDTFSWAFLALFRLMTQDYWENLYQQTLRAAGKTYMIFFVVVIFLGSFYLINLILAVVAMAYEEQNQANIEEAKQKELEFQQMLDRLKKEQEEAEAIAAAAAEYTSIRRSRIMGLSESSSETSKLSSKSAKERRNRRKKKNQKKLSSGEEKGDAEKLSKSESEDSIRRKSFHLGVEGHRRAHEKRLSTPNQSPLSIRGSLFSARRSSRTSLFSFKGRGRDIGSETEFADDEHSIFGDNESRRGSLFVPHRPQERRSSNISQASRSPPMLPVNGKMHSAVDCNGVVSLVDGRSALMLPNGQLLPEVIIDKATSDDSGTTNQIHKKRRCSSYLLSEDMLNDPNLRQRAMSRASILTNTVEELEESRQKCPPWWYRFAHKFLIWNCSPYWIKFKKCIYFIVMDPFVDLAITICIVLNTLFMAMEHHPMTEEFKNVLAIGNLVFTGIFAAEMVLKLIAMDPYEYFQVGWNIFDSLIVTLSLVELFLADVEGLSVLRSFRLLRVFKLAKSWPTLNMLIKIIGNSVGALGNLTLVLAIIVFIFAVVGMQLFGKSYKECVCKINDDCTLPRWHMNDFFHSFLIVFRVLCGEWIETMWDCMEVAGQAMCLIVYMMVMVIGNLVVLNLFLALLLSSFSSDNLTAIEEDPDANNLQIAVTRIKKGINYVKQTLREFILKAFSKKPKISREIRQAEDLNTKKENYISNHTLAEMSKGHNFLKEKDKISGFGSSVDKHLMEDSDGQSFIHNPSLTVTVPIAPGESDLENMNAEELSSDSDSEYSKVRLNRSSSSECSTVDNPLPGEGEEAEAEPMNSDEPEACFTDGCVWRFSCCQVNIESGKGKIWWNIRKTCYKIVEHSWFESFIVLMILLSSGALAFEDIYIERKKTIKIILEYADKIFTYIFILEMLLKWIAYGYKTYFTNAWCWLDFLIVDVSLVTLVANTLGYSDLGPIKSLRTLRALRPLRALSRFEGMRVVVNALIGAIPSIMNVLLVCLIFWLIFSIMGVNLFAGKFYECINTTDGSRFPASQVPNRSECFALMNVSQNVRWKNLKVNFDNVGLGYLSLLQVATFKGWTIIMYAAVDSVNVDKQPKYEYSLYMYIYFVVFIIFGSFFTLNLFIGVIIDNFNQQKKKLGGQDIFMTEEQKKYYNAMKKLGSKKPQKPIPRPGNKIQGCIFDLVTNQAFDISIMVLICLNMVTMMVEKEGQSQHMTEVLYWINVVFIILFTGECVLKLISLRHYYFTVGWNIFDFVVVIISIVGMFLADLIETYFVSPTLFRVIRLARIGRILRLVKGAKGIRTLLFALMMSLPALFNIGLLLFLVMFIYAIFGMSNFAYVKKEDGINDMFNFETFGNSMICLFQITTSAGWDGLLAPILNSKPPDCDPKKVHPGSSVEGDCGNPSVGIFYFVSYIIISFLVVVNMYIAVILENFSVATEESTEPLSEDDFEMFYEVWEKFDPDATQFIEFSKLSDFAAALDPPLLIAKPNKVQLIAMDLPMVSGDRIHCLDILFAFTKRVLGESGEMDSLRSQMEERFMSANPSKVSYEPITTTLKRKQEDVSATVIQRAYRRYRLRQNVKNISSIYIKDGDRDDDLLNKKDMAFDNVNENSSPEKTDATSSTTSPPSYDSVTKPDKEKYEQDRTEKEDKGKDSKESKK
Consider `CC(C)(O)Cn1cnc2ccc(Oc3ccc(F)cc3)cc21` [Example 1, 1-[6-(4-fluorophenoxy)-1H-benzimidazol-1-yl]-2-methylpropan-2-ol], for which the inhibition at 10 µM is 83%. As for `CC(C)(O)Cn1cnc2ccc(Oc3ccc(C(F)(F)F)cn3)cc21` [Example 28, 2-methyl-1-(6-{[5-(trifluoromethyl)pyridin-2-yl]oxy}-1H-benzimidazol-1-yl)propan-2-ol], the inhibition at 10 µM is 82%. For `CC(C)(O)CCn1cnc2ccc(Oc3ccc(C(F)(F)F)cn3)cc21` [Example 59, 2-methyl-4-(6-{[5-(trifluoromethyl)pyridin-2-yl]oxy}-1H-benzimidazol-1-yl)butan-2-ol], the inhibition at 10 µM is 49%. On the same count and under the same terms, next, `OC1(Cn2cnc3ccc(Oc4ccc(OC(F)(F)F)cc4)cc32)COC1` [Example 94, 3-({6-[4-(trifluoromethoxy)phenoxy]-1H-benzimidazol-1-yl}methyl)oxetan-3-ol]: 73%. Same read-out and setting: next, `CC(C)(O)CCn1cnc2ccc(Oc3ccc(Cl)cc3)cc21` [Example 101, 4-[6-(4-chlorophenoxy)-1H-benzimidazol-1-yl]-2-methylbutan-2-ol]: 43%. Take `O[C@H]1CC[C@@H](n2cnc3ccc(Oc4ccc(C(F)(F)F)cn4)cc32)CC1` [Example 118, cis-4-(6-{[5-(trifluoromethyl)pyridin-2-yl]oxy}-1H-benzimidazol-1-yl)cyclohexanol]: the inhibition at 10 µM was determined as 33%. On to `CC(C)(O)Cn1cnc2ccc(-c3ccc(C(F)(F)F)cc3F)cc21` [Example 123, 1-{6-[2-fluoro-4-(trifluoromethyl)phenyl]-1H-benzimidazol-1-yl}-2-methylpropan-2-ol], for which the inhibition at 10 µM came out at 64%. Turning to `COc1cc(C(F)(F)F)ccc1-c1ccc2ncn(CC3(O)COC3)c2c1` [Example 148, 3-({6-[2-methoxy-4-(trifluoromethyl)phenyl]-1H-benzimidazol-1-yl}methyl)oxetan-3-ol], the inhibition at 10 µM is 59%.

With `CC(C)(O)Cn1cnc2cc(-c3ccc(C(F)(F)F)cc3Cl)ccc21` [Example 192], the inhibition at 10 µM was 78%. On to `CC(C)(O)Cn1cnc2cc(-c3ccc(S(C)(=O)=O)cc3C(F)(F)F)ccc21` [Example 193], for which the inhibition at 10 µM stood at 23%. On the same count and under the same terms, next, `CC(C)(O)Cn1cnc2cc(-c3cccc(C(F)(F)F)c3)ccc21` [Example 194]: 43%; `CC(C)(O)Cn1cnc2cc(-c3ccccc3Cl)ccc21` [Example 195]: 31%; `CC(C)(O)Cn1cnc2cc(-c3cccc(Cl)c3)ccc21` [Example 196]: 49%.

Turning to `CC(C)(O)Cn1cnc2cc(-c3ccccc3OC(F)(F)F)ccc21` [Example 197], the inhibition at 10 µM was 33%.

Regarding `CC(C)(O)Cn1cnc2cc(-c3cccc(OC(F)(F)F)c3)ccc21` [Example 198], the inhibition at 10 µM was determined as 58%. For `COc1cc(-c2ccc3c(c2)ncn3CC(C)(C)O)cc(C(F)(F)F)c1` [Example 199], the inhibition at 10 µM is 84%. On the same count and under the same terms, for `CC(C)(O)Cn1cnc2cc(-c3cc(F)cc(Cl)c3)ccc21` [Example 200] the value was 52%. Still for that read-out and setting: next, `CC(C)(O)Cn1cnc2cc(-c3ccc4ocnc4c3)ccc21` [Example 201]: 32%; `CC(C)(O)Cn1cnc2cc(-c3cnoc3)ccc21` [Example 202]: 21%. On the same count and under the same terms, for `OC1(Cn2cnc3cc(-c4ccc(C(F)(F)F)cc4F)ccc32)COC1` [Example 203] the value was 26%. In the case of `OC1(Cn2cnc3cc(-c4ccc(OC(F)(F)F)cc4)ccc32)COC1` [Example 204], the inhibition at 10 µM came to 28%. Take `OC1(Cn2cnc3cc(-c4ccc(C(F)(F)F)cc4Cl)ccc32)COC1` [Example 206]: the inhibition at 10 µM was 69%. With `OC1(Cn2cnc3cc(-c4ccc(Cl)cc4C(F)(F)F)ccc32)COC1` [Example 207], the inhibition at 10 µM came out at 65%. On the same count and under the same terms, next, `Cc1c(Cl)cccc1-c1ccc2c(c1)ncn2CC1(O)COC1` [Example 208]: 43%. Consider `Cc1ccc(Cl)cc1-c1ccc2c(c1)ncn2CC1(O)COC1` [Example 209], for which the inhibition at 10 µM was 48%. For the compound `OC1(Cn2cnc3cc(-c4cc(C(F)(F)F)ccc4F)ccc32)COC1` [Example 210], the inhibition at 10 µM came out at 48%. The same measure, in the same setting: for `OC1(Cn2cnc3cc(-c4cc(C(F)(F)F)ccc4Cl)ccc32)COC1` [Example 211] the value was 44%; for `COc1cc(-c2ccc3c(c2)ncn3CC2(O)COC2)cc(C(F)(F)F)c1` [Example 212], 55%; for `Cc1cc(-c2ccc3c(c2)ncn3CC2(O)COC2)cc(C(F)(F)F)c1` [Example 213], 41%. Take `OC1(Cn2cnc3cc(-c4cc(F)cc(Cl)c4)ccc32)COC1` [Example 214]: the inhibition at 10 µM is 42%. `Cc1c(-c2ccc3c(c2)ncn3CC2(O)COC2)cccc1C(F)(F)F` [Example 215]: the inhibition at 10 µM is 84%. Take `COc1cccc(-c2ccc3c(c2)ncn3CC2(O)COC2)c1Cl` [Example 216]: the inhibition at 10 µM turned out to be 53%. For `OC1(Cn2cnc3cc(-c4cccc(C(F)(F)F)c4Cl)ccc32)COC1` [Example 217], the inhibition at 10 µM was 60%.

Take `Cc1cc(Cl)cc(-c2ccc3c(c2)ncn3CC2(O)COC2)c1` [Example 218]: the inhibition at 10 µM turned out to be 53%.

As to `CC(C)(O)CCn1cnc2cc(-c3ccc(F)cc3)ccc21` [Example 219], the inhibition at 10 µM was determined as 40%. Same read-out and setting: next, `CC(C)(O)CCn1cnc2cc(-c3ccc(Cl)cc3)ccc21` [Example 220]: 52%; `CC(C)(O)CCn1cnc2cc(-c3ccc(C(F)(F)F)cc3)ccc21` [Example 221]: 45%.

Consider `COc1cc(C(F)(F)F)ccc1-c1ccc2c(c1)ncn2CCC(C)(C)O` [Example 222], for which the inhibition at 10 µM was 45%. Still for that read-out and setting: next, `CC(C)(O)CCn1cnc2cc(-c3ccc(C(F)(F)F)cc3F)ccc21` [Example 223]: 47%; `CC(C)(O)Cn1cnc2cc(Oc3ccc(C(F)(F)F)cc3F)ccc21` [Example 224, 1-{5-[2-fluoro-4-(trifluoromethyl)phenoxy]-1H-benzimidazol-1-yl}-2-methylpropan-2-ol]: 53%; `CC(C)(O)Cn1cnc2cc(Oc3ccc(C(F)(F)F)cc3)ccc21` [Example 225]: 64%. On the same count and under the same terms, next, `OC1(Cn2cnc3cc(Oc4ccc(C(F)(F)F)cc4)ccc32)COC1` [Example 226]: 45%; `C[C@](O)(CO)Cn1cnc2ccc(Oc3ccc(C(F)(F)F)cn3)cc21` [Example 227, (2R)-2-methyl-3-(6-{[5-(trifluoromethyl)pyridin-2-yl]oxy}-1H-benzimidazol-1-yl)propane-1,2-diol]: 11%.

Still in this experiment, the particulars now being: compound concentration 100 μmol/L (footnoted examples); holding potential inactivating 50% Nav 1.7 channel (around −60 mV); read-out: Inhibitory rate (%) of Na ion current.
Regarding `C[C@@H](n1cnc2ccc(Oc3ccc(C(F)(F)F)cn3)cc21)C(C)(C)O` [Example 228, (3R)-2-methyl-3-(6-{[5-(trifluoromethyl)pyridin-2-yl]oxy}-1H-benzimidazol-1-yl)butan-2-ol], the inhibition at 100 µM worked out at 66%.

Staying with this experiment, now noted: read-out: Inhibitory rate (%) of Na ion current.
In the case of `CC(C)(O)Cn1cnc2ccc(Oc3ccc(Cl)cc3)cc21` [Example 20, 1-[6-(4-chlorophenoxy)-1H-benzimidazol-1-yl]-2-methylpropan-2-ol], the inhibition at 10 µM turned out to be 91%.

The next experiment relates to rats streptozotocin (STZ)-induced diabetic peripheral neuropathy model. Nature of the experiment: Evaluation of analgesic effect (von Frey test) in streptozotocin-induced diabetic peripheral neuropathy model. Type of experiment: in vivo, rat. The conditions noted are these: male Wistar rats, 3 mg/kg of body weight, orally, one hour before measuring. As to the method: Test (2) Evaluation of Analgesic Effect in Streptozotocin-Induced Diabetic Peripheral Neuropathy Models
Using some typical compounds among the compounds of the present invention, the inhibitory effect for neuropathic pain was determined through the evaluation of analgesic effect in rats streptozotocin (STZ)-induced diabetic peripheral neuropathy model.
The disease animal model was prepared by means of a partially-modified method of Fox et al. (Pain 81, 307-316, 1999). STZ was intraperitoneally administered to 9-week old male Wistar rats in 45 mg/kg of body weight to prepare animal model suffering from diabetic peripheral neuropathy. The analgesic effect was evaluated by von Frey test. Specifically, mechanical sensitivity was measured by applying hairs (von Frey hair) to the plantar surface of the animal's hind paw, and then the reaction thresholds (50% paw withdrawal thresholds) for the mechanical stimulation was determined by using a formula based on Chaplan et al. (Journal of Neuroscience Methods 53, 55-63, 1994).
One and two days before evaluating the test compounds, the reaction thresholds were measured to obtain an average thereof, and the average value was used as a reference value obtained before the test compounds would be administered.
In order to reduce the variations of the averaged values among the test groups and the measured values in each group, the animals were divided into 4 to 5 groups.
In the evaluation test of the test compounds, the reaction thresholds were measured after administering each test compound. One hour before measuring the reaction thresholds, each test compound was administered in 3 mg/kg of body weight. The strength of analgesic effect of each test compound is expressed as the extension width (g) of reaction thresholds which is obtained by the calculation formula of (reaction threshold obtained after administering test compound)−(reaction threshold obtained before administering test compound).
Take `CC(C)(O)Cn1cnc2ccc(Oc3ccc(F)cc3)cc21` [Example 1, 1-[6-(4-fluorophenoxy)-1H-benzimidazol-1-yl]-2-methylpropan-2-ol]: the “extension width (g) of reaction thresholds (50% paw withdrawal threshold after minus before administering test compound)” value is given as 2.8 g. For the compound `CC(C)(O)Cn1cnc2ccc(Oc3ccc(Cl)cc3)cc21` [Example 20, 1-[6-(4-chlorophenoxy)-1H-benzimidazol-1-yl]-2-methylpropan-2-ol], the “extension width (g) of reaction thresholds (50% paw withdrawal threshold after minus before administering test compound)” value worked out at 2.9 g. Same read-out and setting: for `CC(C)(O)Cn1cnc2ccc(Oc3ccc(C(F)(F)F)cn3)cc21` [Example 28, 2-methyl-1-(6-{[5-(trifluoromethyl)pyridin-2-yl]oxy}-1H-benzimidazol-1-yl)propan-2-ol] the value was 6 g. Turning to `CC(C)(O)CCn1cnc2ccc(Oc3ccc(C(F)(F)F)cn3)cc21` [Example 59, 2-methyl-4-(6-{[5-(trifluoromethyl)pyridin-2-yl]oxy}-1H-benzimidazol-1-yl)butan-2-ol], the “extension width (g) of reaction thresholds (50% paw withdrawal threshold after minus before administering test compound)” value is listed as 5.1 g.

As to `OC1(Cn2cnc3ccc(Oc4ccc(OC(F)(F)F)cc4)cc32)COC1` [Example 94, 3-({6-[4-(trifluoromethoxy)phenoxy]-1H-benzimidazol-1-yl}methyl)oxetan-3-ol], the “extension width (g) of reaction thresholds (50% paw withdrawal threshold after minus before administering test compound)” value is reported as 4.9 g. On the same count and under the same terms, next, `CC(C)(O)CCn1cnc2ccc(Oc3ccc(Cl)cc3)cc21` [Example 101, 4-[6-(4-chlorophenoxy)-1H-benzimidazol-1-yl]-2-methylbutan-2-ol]: 1.4 g. In the case of `O[C@H]1CC[C@@H](n2cnc3ccc(Oc4ccc(C(F)(F)F)cn4)cc32)CC1` [Example 118, cis-4-(6-{[5-(trifluoromethyl)pyridin-2-yl]oxy}-1H-benzimidazol-1-yl)cyclohexanol], the “extension width (g) of reaction thresholds (50% paw withdrawal threshold after minus before administering test compound)” value is recorded as 3.4 g.

`CC(C)(O)Cn1cnc2ccc(-c3ccc(C(F)(F)F)cc3F)cc21` [Example 123, 1-{6-[2-fluoro-4-(trifluoromethyl)phenyl]-1H-benzimidazol-1-yl}-2-methylpropan-2-ol]: the “extension width (g) of reaction thresholds (50% paw withdrawal threshold after minus before administering test compound)” value came out at 1.3 g.

Take `COc1cc(C(F)(F)F)ccc1-c1ccc2ncn(CC3(O)COC3)c2c1` [Example 148, 3-({6-[2-methoxy-4-(trifluoromethyl)phenyl]-1H-benzimidazol-1-yl}methyl)oxetan-3-ol]: the “extension width (g) of reaction thresholds (50% paw withdrawal threshold after minus before administering test compound)” value amounted to 3.7 g.
